Measured values published in ChEMBL document CHEMBL5241054, “Effective anti-aromatase therapy to battle against estrogen-mediated breast cancer: Comparative SAR/QSAR assessment on steroidal aromatase inhibitors” (Eur J Med Chem, 2020).

Biological target: T1, Aromatase (Homo sapiens, UniProt P11511)
T1 sequence (P11511 whole entry): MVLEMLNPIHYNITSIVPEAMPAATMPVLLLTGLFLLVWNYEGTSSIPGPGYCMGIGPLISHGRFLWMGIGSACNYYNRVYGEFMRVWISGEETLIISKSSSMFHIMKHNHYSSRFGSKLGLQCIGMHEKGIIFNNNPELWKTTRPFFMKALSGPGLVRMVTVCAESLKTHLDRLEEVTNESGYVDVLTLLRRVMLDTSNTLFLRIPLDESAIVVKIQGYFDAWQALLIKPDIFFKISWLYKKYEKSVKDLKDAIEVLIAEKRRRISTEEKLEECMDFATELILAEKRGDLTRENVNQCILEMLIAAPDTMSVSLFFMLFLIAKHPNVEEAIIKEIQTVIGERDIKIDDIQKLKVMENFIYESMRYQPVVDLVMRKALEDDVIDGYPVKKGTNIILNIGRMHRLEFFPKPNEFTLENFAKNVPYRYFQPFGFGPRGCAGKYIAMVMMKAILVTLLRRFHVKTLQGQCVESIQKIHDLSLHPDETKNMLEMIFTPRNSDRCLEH

Structure (SMILES) | IC50
C[C@]12CCCC=C1C(=O)C[C@@H]1[C@@H]2CC[C@]2(C)C(=O)CC[C@@H]12 | 165 nM
CCCCC1C[C@H]2[C@@H]3CC[C@H](O)[C@@]3(C)CC[C@@H]2[C@@]2(C)CCC(=O)C=C12 (some centres not stated) | 48 nM
C=C[C@@H]1C[C@@H]2[C@H](CC[C@]3(C)C(=O)CC[C@@H]23)[C@@]2(C)CCC(=O)C=C12 | 320 nM
C[C@]12CC[C@H]3[C@@H](CCC4=CCCC[C@@]43C=O)[C@@H]1C[C@@H](O)C2=O | 28000 nM
COC1=C2C(=O)C[C@@H]3[C@H](CC[C@]4(C)C(=O)CC[C@@H]34)[C@@]2(C)CC(C)(C)C1=O | 1900 nM
C[C@]12CC[C@H]3[C@@H](CCC4=CC(=O)CC[C@@]43CC#N)[C@@H]1CCC2=O | 2600 nM
C[C@]12C=CC(=O)C=C1[C@@H](CCCCCc1ccccc1)C[C@@H]1[C@@H]2CC[C@]2(C)C(=O)CC[C@@H]12 | 330 nM
C[C@]12CC[C@@H]3c4ccc(O)c(NC(=O)c5ccncc5)c4CC[C@H]3[C@@H]1CCC2=O | 28600 nM
C[C@]12CCC[C@H](O)C1=CC(=O)[C@@H]1[C@@H]2CC[C@]2(C)C(=O)CC[C@@H]12 | 6300 nM
CCC1C[C@H]2[C@@H]3CC[C@H](O)[C@@]3(C)CC[C@@H]2[C@@]2(C)C=CC(=O)C=C12 (some centres not stated) | 61.9 nM
C[C@]12CC[C@@H]3c4cc([N+](=O)[O-])c(O)cc4CC[C@H]3[C@@H]1CCC2=O | 15000 nM
CC[C@]12CCC(=O)C=C1C=C[C@@H]1[C@@H]2CC[C@]2(C)C(=O)CC[C@@H]12 | 300 nM
C[C@]12CC[C@@H]3c4cc(C=O)c(O)cc4CC[C@H]3[C@@H]1CC[C@@H]2O | 101000 nM
CCC[C@H]1C[C@@H]2[C@H](CC[C@]3(C)C(=O)CC[C@@H]23)[C@@]2(C)C=CC(=O)C=C12 | 270 nM
C[C@]12CCC(=O)C=C1C[C@@H](Sc1ccc(N)cc1)[C@@H]1[C@@H]2CC[C@]2(C)C(=O)CC[C@@H]12 | 160 nM
C[C@]12CCC(=O)C=C1C[C@@H](SCc1ccccc1)[C@@H]1[C@@H]2CC[C@]2(C)C(=O)CC[C@@H]12 | 69 nM
C[C@]12CCCCC1=CC[C@@H]1[C@@H]2CC[C@]2(C)C(=O)[C@H](Br)C[C@@H]12 | 55000 nM
C[C@]12C[C@@H](CCc3ccccc3)C(=O)C=C1CC[C@@H]1[C@@H]2CC[C@]2(C)C(=O)CC[C@@H]12 | 126000 nM
C[C@]12CCC(=O)C=C1C[C@H](Cc1ccccc1)[C@@H]1[C@@H]2CC[C@]2(C)C(=O)CC[C@@H]12 | 44.5 nM
C[C@]12CCC(=O)C=C1C1OC1[C@@H]1[C@@H]2CC[C@]2(C)C(=O)CC[C@@H]12 (some centres not stated) | 39000 nM
C[C@]12CCC(=O)C(Sc3ccccc3)=C1CC[C@@H]1[C@@H]2CC[C@]2(C)C(=O)CC[C@@H]12 | 180 nM
C[C@]12CC[C@H]3[C@@H](CC(=O)C4=CCCC[C@@]43C)[C@@H]1CC[C@@H]2O | 1800 nM
C[C@]12CCC(=O)c3c1c(nn3Cc1ccccc1)C[C@@H]1[C@@H]2CC[C@]2(C)C(=O)CC[C@@H]12 | 342 nM

Structure (SMILES) | IC50
CCCCCC[C@H]1C[C@@H]2[C@H](CC[C@]3(C)C(=O)CC[C@@H]23)[C@@]2(C)C=CC(=O)C=C12 | 280 nM
C[C@]12CCCC=C1CC[C@@H]1[C@@H]2CC[C@]2(C)C(=O)[C@H](Br)C[C@@H]12 | 4100 nM
CC(=O)OC[C@]12CCCC=C1CC[C@@H]1[C@@H]2CC[C@]2(C)C(O)CC[C@@H]12 (some centres not stated) | 44000 nM
C[C@]12C=CC(=O)C=C1C(CCCCc1ccccc1)=C[C@@H]1[C@@H]2CC[C@]2(C)C(=O)CC[C@@H]12 | 150 nM
C[C@]12CCC(=O)C=C1[C@H](CCCCc1ccccc1)C[C@@H]1[C@@H]2CC[C@]2(C)C(=O)CC[C@@H]12 | 135000 nM
CC[C@]12C=CC(=O)C=C1CC[C@H]1[C@@H]3CCC(=O)[C@@]3(C)CC[C@@H]12 | 160 nM
CC[C@]12CCC(=O)C=C1CC[C@@H]1[C@@H]2CC[C@]2(C)C(=O)CC[C@@H]12 | 300 nM
C[C@]12C=CC(=O)C=C1[C@H](CCCCc1ccccc1)C[C@@H]1[C@@H]2CC[C@]2(C)C(=O)CC[C@@H]12 | 470 nM
CO[C@H]1C[C@@H]2[C@H](CC[C@]3(C)[C@@H](O)CC[C@@H]23)c2ccc(O)cc21 | 99100 nM
CC[C@H]1C[C@@H]2[C@H](CC[C@]3(C)C(=O)CC[C@@H]23)[C@@]2(C)CCC(=O)C=C12 | 260 nM
C[C@]12CCC(=O)C=C1C(CCCc1ccccc1)=C[C@@H]1[C@@H]2CC[C@]2(C)C(=O)CC[C@@H]12 | 250 nM
CCO[C@@H]1C[C@@H]2[C@H](CC[C@]3(C)C(=O)CC[C@@H]23)c2ccc(O)cc21 | 83900 nM
C[C@]12CCCC=C1[C@H]1C[C@H]1[C@@H]1[C@@H]2CC[C@]2(C)C(=O)CC[C@@H]12 | 150 nM
CCCCO[C@@H]1C[C@@H]2[C@H](CC[C@]3(C)C(=O)CC[C@@H]23)c2ccc(O)cc21 | 174000 nM
C[C@]12CC[C@H]3[C@@H](CCC4C(=O)[C@H](O)CC[C@@]43C)[C@@H]1CC[C@@H]2O (some centres not stated) | 3900 nM
CC(=O)N1[C@H]2[C@@H]3[C@H](CC[C@]4(C)C(=O)CC[C@@H]34)[C@@]3(C)CCC(=O)C=C3[C@H]21 | 64600 nM
CCCCC1C[C@H]2[C@@H]3CC[C@H](O)[C@@]3(C)CC[C@@H]2[C@@]2(C)C=CC(=O)C=C12 (some centres not stated) | 64 nM
C[C@]12CCC(=O)C=C1C(CCCCc1ccccc1)=C[C@@H]1[C@@H]2CC[C@]2(C)C(=O)CC[C@@H]12 | 280 nM
C[C@]12C=CC(=O)C=C1C(CCCCCc1ccccc1)=C[C@@H]1[C@@H]2CC[C@]2(C)C(=O)CC[C@@H]12 | 100 nM
C[C@]12CC[C@H]3[C@@H](C(=O)C=C4CCCC[C@@]43C=O)[C@@H]1CCC2=O | 60000 nM
C[C@]12CCC(=O)c3nn(C/C=C/c4ccccc4)c(c31)C[C@@H]1[C@@H]2CC[C@]2(C)C(=O)CC[C@@H]12 | 951 nM
C[C@]12CC[C@H]3[C@@H](CC=C4CCCC[C@@]43C=O)[C@@H]1CCC2=O | 8990 nM
CC1(C)C[C@@]2(C)C(=CC1=O)[C@@H](Br)C[C@@H]1[C@@H]2CC[C@]2(C)C(=O)CC[C@@H]12 | 100 nM

Structure (SMILES) | IC50
C[C@]12CC[C@H]3[C@@H](CCC4=CC(=O)C=C[C@@]43CI)[C@@H]1CCC2=O | 5500 nM
CCCC[C@@H]1C[C@@H]2[C@H](CC[C@]3(C)[C@@H](O)CC[C@@H]23)c2ccc(O)cc21 | 44000 nM
C[C@]12CCC(=O)C=C1[C@@H](O)C[C@@H]1[C@@H]2CC[C@]2(C)C(=O)CC[C@@H]12 | 15000 nM
C[C@]12CCC(=O)C=C1[C@H](Br)C[C@@H]1[C@@H]2CC[C@]2(C)C(=O)CC[C@@H]12 | 800 nM
CO[C@@H]1C[C@@H]2[C@H](CC[C@]3(C)C(=O)CC[C@@H]23)c2ccc(O)cc21 | 49000 nM
CCCC[C@@H]1C[C@@H]2[C@H](CC[C@]3(C)C(=O)CC[C@@H]23)[C@@]2(C)C=CC(=O)C=C12 | 180 nM
C[C@]12CC[C@H]3[C@@H](C=CC4=CC(=O)CC[C@@]43CCl)[C@@H]1CCC2=O | 760 nM
C[C@]12CCC(=O)C=C1[C@@H](CCCCCc1ccccc1)C[C@@H]1[C@@H]2CC[C@]2(C)C(=O)CC[C@@H]12 | 560000 nM
C[C@@H]1C[C@@H]2[C@H](CC[C@]3(C)[C@@H](O)CC[C@@H]23)c2ccc(O)cc21 | 61000 nM
CC(=O)O[C@H]1C2=CC(=O)CC[C@]2(C)[C@H]2CC[C@]3(C)C(=O)CC[C@H]3[C@@H]2C1N=[N+]=[N-] (some centres not stated) | 23100 nM
C[C@]12CC[C@H]3[C@@H](CCC4=CC(=O)CC[C@@]43C)[C@@H]1C[C@@H](O)[C@@H]2O | 899000 nM
CCCCCCCC1=C[C@@]2(C)C(=CC1=O)CC[C@@H]1[C@@H]2CC[C@]2(C)C(=O)CC[C@@H]12 | 605 nM
C[C@]12CCC(=O)C=C1[C@H](N=[N+]=[N-])C(O)[C@@H]1[C@@H]2CC[C@]2(C)C(=O)CC[C@@H]12 (some centres not stated) | 47000 nM
C[C@]12C=CC(=O)C=C1C(c1ccccc1)=C[C@@H]1[C@@H]2CC[C@]2(C)C(=O)CC[C@@H]12 | 540 nM
C[C@]12CC[C@@H]3c4ccc(O)c(F)c4CC[C@H]3[C@@H]1CC[C@@H]2O | 87900 nM
C[C@]12C[C@@H](CCc3ccc(C(F)(F)F)cc3)C(=O)C=C1CC[C@@H]1[C@@H]2CC[C@]2(C)C(=O)CC[C@@H]12 | 46600 nM
COC1=C[C@@]2(C)C(=CC1=O)CC[C@@H]1[C@@H]2CC[C@]2(C)C(=O)CC[C@@H]12 | 1100 nM
C=C[C@]12CCC(=O)C=C1CC[C@@H]1[C@@H]2CC[C@]2(C)C(=O)CC[C@@H]12 | 100 nM
CCCC1=C[C@@]2(C)C(=CC1=O)CC[C@@H]1[C@@H]2CC[C@]2(C)C(=O)CC[C@@H]12 | 1750 nM
C[C@]12CCCC(=O)C1=CC(=O)[C@@H]1[C@@H]2CC[C@]2(C)C(=O)CC[C@@H]12 | 3600 nM
C[C@]12CC[C@@H]3c4ccc(O)cc4[C@@H](c4ccccc4)C[C@H]3[C@@H]1CC[C@@H]2O | 129000 nM
